According to patent publication US20090011974A1, “Scavenger Receptor B1 (Cla-1) Targeting for the Treatment of Infection, Sepsis and Inflammation” (priority 2002, published 2009):
Entries after “also recorded” stand apart in the source; their conditions may differ. Where no end group is shown, it is not given here.

Tests used:
[1] = test system: CLA-1 overexpressing HeLa cells; test: Bodipy-LPS uptake in HeLa cells in the presence of competitors; assay type: cell-based, human; conditions: for effect on Bodipy-LPS uptake (surface binding and internalization): 100-fold excess of peptide, HeLa cells
Procedure: HeLa cells cultured on collagen-coated glass micro-slides are incubated with 5 μg/ml of Alexa 568 HDL, 1-0.5 μg/ml of Alexa 568 apoA-I, 1-0.5 μg/ml of Alexa 568 apoA-II or 0.5 μg/ml Bodipy-LPS for 1-2 hour in a CO2 incubator in DMEM containing 20 mg/ml BSA. […] Imaging is performed in PBS containing 0.4 mg/ml of Trypan Blue as the quenching agent. […] For co-localization, Bodipy-LPS and Alexa-568-apoA-I are used at the same concentration of 0.5 μg/ml. A Nikon video-imaging system, consisting of a phase contrast inverted microscope equipped with set of objectives and filters for immunofluorescence and connected to a digital camera and image processor, is used for recording Alexa-568-HDL and Bodipy-LPS uptake. For co-localization experiments, fluorescence is viewed with a Zeiss 510 laser scanning confocal microscope, using a krypton-argon-Omnichrome laser with excitation wavelengths of 488 and 568 nm for Bodipy-LPS and Alexa-568, respectively.
(§1) HeLa cells cultured on glass micro-slides are incubated with 5 μg/ml of Alexa568 HDL, 1-0.5 μg/ml of Alexa 568 apoA-I, 1-0.5 μg/ml of Alexa 568 L-37PA or 0.5 μg/ml Bodipy-LPS for 1-2 h in a CO2 incubator in DMEM containing 1 mg/ml BSA. […] For co-localization, Bodipy-LPS and Alexa 568-HDL or Bodipy-LPS and Alexa 568-L-37PA were used at the same concentrations of 0.5 μg/ml. Fluorescence was viewed with a Zeiss 510 laser scanning confocal microscope, using a krypton-argon-Omnichrome laser with excitation wavelengths of 488 and 568 nm for Bodipy-LPS and Alexa-568 labels, respectively.
Competition Experiments. The cells are incubated in 1 μg/ml Bodipy-LPS in the presence increasing concentrations of studied peptides. After 2-h incubation cells are washed with ice-cold PBS and lysed in 0.1% sodium dodecyl sulfate (SDS). The lysate fluorescence is measured by HTS7000 Bioassay reader (Perkin Elmer) using 488 nm for excitation and 533 nm for emission monitoring.

THP-1 cells [2] = test: LPS-stimulated cytokine production in THP-1 cells (ELISA); assay type: cell-based, human; conditions: 10 ng/ml LPS, 24 h
Procedure: (§2) THP-1 and CLA-1 overexpressing HeLa cells. Human monocyte-macrophages, THP-1 (ATCC [American Type Culture Collection] TIB 71), are grown in 48-well plates in RPMI 1640 medium supplemented with 10% fetal calf serum (FCS), penicillin (100 U/ml), and streptomycin (100 μg/ml). All experiments involving LPS-induced interleukin production utilize the same media except that 1% FCS was used. Hela cells were cultured as previously reported (Vishnyakova, T. G. et al. (2003) “BINDING AND INTERNALIZATION OF LIPOPOLY[…] CLA-1, A HUMAN ORTHOLOGUE OF RODENT […] RECEPTOR B1,” J. Biol. Chem 278:22771-22780).
Assays for cytokines and lactate dehydrogenase (LD). […]

THP-1 cells [3] = test: LTA, Gro-EL and HSP60 stimulated IL-8/IL-6 production in THP-1 cells; assay type: cell-based, human; conditions: 1 μg/ml LTA or Gro-EL, 10-200 fold excess of peptide
Procedure: as §2
Assays for cytokines and lactate dehydrogenase (LD).

[4] = Limulus amebocyte lysate (LAL) assay for LPS incubated with peptides; conditions: 10 ng/ml LPS, 10 μg/ml peptide, 37° C., 24 h; for effect on LAL activity of LPS in the absence of bivalent cations: PBS; for effect on LAL activity of LPS in media containing bivalent cations: RPMI-1640 1% FCS or DPBS
Description: Limulus Amebocyte Lysate (LAL) Assay for LPS.
Limulus amebocyte lysate (LAL) assay for LPS.

CLA-1 [5] = molecular target: T1, CLA-1 (Homo sapiens, UniProt Q8WTV0); test: Confocal uptake of Alexa/Bodipy labelled ligands in CLA-1 expressing versus mock transfected HeLa cells; assay type: cell-based; conditions: for uptake in CLA-1 transfected HeLa cells compared with mock-transfected control: labelled ligand, confocal microscopy
T1 construct: using the expression plasmid pTRE2 (Clontech, Pal Alto, Calif.), encoding a CLA-1 protein (pTRE2-CLA-1); expressed in transfected cells; host or cells: HeLa (Tet-off) cells (Clontech), stably co-transfected with pTRE2-CLA-1 and pTK-Hyg and selected with hygromycin
T1 sequence (Q8WTV0 1-509 isoform Q8WTV0-2): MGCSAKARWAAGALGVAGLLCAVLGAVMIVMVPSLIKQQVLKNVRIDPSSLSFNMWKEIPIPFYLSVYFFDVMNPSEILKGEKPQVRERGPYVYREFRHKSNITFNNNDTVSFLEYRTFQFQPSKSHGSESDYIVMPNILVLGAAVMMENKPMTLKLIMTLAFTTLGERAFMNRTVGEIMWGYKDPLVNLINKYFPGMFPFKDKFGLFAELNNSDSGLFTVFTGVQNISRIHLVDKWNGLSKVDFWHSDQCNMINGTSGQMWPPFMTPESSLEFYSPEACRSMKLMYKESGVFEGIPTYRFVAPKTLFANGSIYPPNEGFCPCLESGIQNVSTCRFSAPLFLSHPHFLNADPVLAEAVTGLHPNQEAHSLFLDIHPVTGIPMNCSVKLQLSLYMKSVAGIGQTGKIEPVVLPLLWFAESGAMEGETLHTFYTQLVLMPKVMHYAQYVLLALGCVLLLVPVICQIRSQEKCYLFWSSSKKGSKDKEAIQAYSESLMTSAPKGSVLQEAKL
Procedure: Preparation of BODIPY-LPS and Alexa-568 HDL, Lipid-free ApoA-I, L-37PA, L2D-37PA and 18A. HDL, apoA-I, L-37PA, L2D-37PA and 18A are conjugated with Alexa-568, SE (Molecular Probes, protein labeling kit) following the kit instructions. The Alexa ligands are analyzed by 10-20% Tricine-SDS peptide gel electrophoresis. Gels are scanned using Variable Mode Imager, Typhoon 9200, Molecular Dynamics. Alexa-labeled preparations of HDL, apolipoproteins and the peptides are found in appropriate positions with molecular masses of 28, 5 and 2.5 kDa for apoA-I, L-37PA and 18PA, respectively.
as §1

CLA-1 [6] = molecular target: T1, CLA-1; test: Competition for Alexa 488-SAA uptake in CLA-1 overexpressing and mock transfected HeLa cells (FACS); assay type: binding; conditions: mock transfected and CLA-1 overexpressing HeLa cells
Procedure: Competition experiments. Cells are cultured for 24 hr in serum free DMEM before experiments. […] For KKB-1 anti-CLA-1 blocking experiments, cells are pre-incubated with KKB-1 rabbit anti-serum (non-immune rabbit serum as a negative control) at a dilution of 1:10 followed by ligand addition to a final concentration of 5 μg/ml and a 1-hour incubation. Cell fluorescence was analyzed by FACS analyses.

Substance | effect on Bodipy-LPS uptake (surface binding and internalization) [1] | effect on LPS-stimulated cytokine (IL-8, IL-6, TNF-α) production (THP-1 cells [2]) | effect on LTA and Gro-EL stimulated IL-8 and IL-6 production (THP-1 cells [3]) | effect on LAL activity of LPS in the absence of bivalent cations [4] | effect on LAL activity of LPS in media containing bivalent cations [4] | SR-BI/CLA-1 ligand property (CLA-1 [5]) | uptake in CLA-1 transfected HeLa cells compared with mock-transfected control (CLA-1 [5]) | competition with Alexa 488-SAA for CLA-1 (CLA-1 [6]) | effect on LAL activity of LPS in the absence of bivalent cations ([4]; listed as L2D-37P A) | effect on LAL activity of LPS in media containing bivalent cations ([4]; listed as L2D-37P A) | effect on surface bound Bodipy-LPS ([1]; 100× excess, CLA-1 overexpressing cells) | effect on Bodipy-LPS uptake ([1]; 200× excess of unlabeled lipid poor apoA-I, CLA-1 overexpressing HeLa cells) | competition with Alexa 488-SAA for CLA-1 (CLA-1 [6]; listed as ApoA-I)
DWLKAFYDKVAEKLKEAF [Peptide 18A] | did not affect LPS-uptake | did not affect LPS-uptake and LPS-stimulated cytokine production; also recorded: Neither L2D-37PA nor 18A, a single helix containing peptide, are effective inhibitors; also recorded: without effect | low blocking efficiency | similarly neutralized LPS activity | had no effect on the LAL activity of LPS in culture media | less potent SR-BI/CLA-1 ligand | not increased | – | – | – | – | – | –
DWLKAFYDKVAEKLKEAF-P-DWLKAFYDKVAEKLKEAF [L1D-37PA] (DWLKAFYDKVAEKLKEAFPDWLKAFYDKVAEKLKEAF; not fully specified (residue 1)) [Peptide L1D-37PA] | – | not effective blockers | not effective blockers; also recorded: no effect was observed | – | – | – | – | No competition is demonstrated | – | – | – | – | –
DWLKAFYDKVAEKLKEAF-P-DWLKAFYDKVAEKLKEAF [L2D-37PA] (DWLKAFYDKVAEKLKEAFPDWLKAFYDKVAEKLKEAF; also: two D-amino acids per helix, places not given here) [Peptide L2D-37PA] | did not affect LPS-uptake; also recorded: does not decrease LPS uptake; also recorded: block neither LPS uptake | did not affect LPS-uptake and LPS-stimulated cytokine production; also recorded: Neither L2D-37PA nor 18A, a single helix containing peptide, are effective inhibitors; also recorded: not effective blockers; also recorded: without effect; also recorded: block neither LPS uptake nor LPS/LTA/Gro-EL induced interleukin (IL-6 and IL-8) secretion | not effective blockers; also recorded: block neither LPS uptake nor LPS/LTA/Gro-EL induced interleukin (IL-6 and IL-8) secretion; also recorded: no effect was observed | also decreases LPS activity in the absence of bivalent cations | No substantial LPS neutralization; also recorded: had no effect in the presence of bivalent cations | do not bind to SR-BI/CLA-1 | not increased | No competition is demonstrated | similarly neutralized LPS activity | had no effect on the LAL activity of LPS in culture media | – | – | –
DWLKAFYDKVAEKLKEAF-P-DWLKAFYDKVAEKLKEAF [L3D-37PA] (DWLKAFYDKVAEKLKEAFPDWLKAFYDKVAEKLKEAF; also: triple D-amino acid substitutions, places not given here) [Peptide L3D-37PA] | – | not effective blockers | not effective blockers; also recorded: no effect was observed | – | – | – | – | No competition is demonstrated | – | – | – | – | –
apoA-I: lipid poor apolipoprotein A-I purified from human plasma | – | – | – | – | – | – | Increased surface binding and internalization | compete with Alexa 488-SAA for CLA-1 | – | – | eliminated surface bound Bodipy-LPS | dramatically reduces Bodipy-LPS uptake | competed for CLA-1 binding with Alexa 488-SAA
